Like-named read-outs stand apart in the source and are kept apart here.
Columns and labels:
SH-SY5Y cells = test: Cytotoxicity, MTT assay, SH-SY5Y; assay type: cell-based; details: Homo sapiens, read-out: SH-SY5Y IC50
Method: (§1) All compounds tested were dissolved and eventually further diluted in dimethylsulfoxide (DMSO). After overnight incubation, the cells were treated with different compound concentrations (5, 10, 20, 50, 100, 150, 200 µM) in a final volume of 200 µL with four replicates each. […] Cell proliferation or viability was measured using the 3-(4,5-dimethylthiazol-2-yl)-2,5-diphenyl tetrazolium bromide (MTT) assay. The MTT assay was optimized taking into account the number of cells plated per well, to work in the linear part of the cell density vs. MTT absorbance calibration curve, which allows achieving a maximum absorbance in the range of 0.8–1.0 in each well at the end of the experiment. In addition to that, the number of cells seeded for each experiment was optimized in agreement with the time scale of the experiment.
(§2) After cell treatment, 20 µL of MTT (5 mg/mL) was added to each well, and the plate was incubated at 37 °C in the dark for 2 h. Supernatants were removed, and the formazan crystals were solubilized in DMSO (200 µL/well), under 10 min shaking at room temperature. The reduction of MTT was quantified by absorbance at 570 nm in a Varioskan microplate reader (Thermo Fisher Scientific, Vantaa, Finland). Effects of the test compounds on cell viability were calculated using cells treated with a vehicle as a control. For IC50 and LD50 calculations, the data were subjected to linear regression analysis, and the regression lines were plotted for the best fit. The IC50 (inhibition of cell viability) concentrations were calculated using the respective dose–response curves.

[1] = Ferric reducing antioxidant power (FRAP) assay; assay type: biochemical; set-up: FRAP Assay Trolox Equivalents: unit not given here; details: for FRAP Assay Antioxidant Capacity (%) at 100 uM: compound at 100 uM; for FRAP Assay Antioxidant Capacity (%) at 200 uM: compound at 200 uM
Method: FRAP reagent was prepared by mixing 10 mL of 300 mM acetate buffer with 1 mL of 10 mM 2,4,6-tripyridyl-S-triazine (TPTZ) in HCl 40 mM and 1mL of FeCl3·6H2O 20 mM. […] Trolox was used as assay control.

[2] = ABTS radical scavenging assay; assay type: biochemical; details: for IC50: 30-min incubation; for ABTS Assay TEAC50: Equivalent antioxidant capacity at Trolox 50 mM; for ABTS Assay TEAC100: Equivalent antioxidant capacity at Trolox 100 mM
Method: The mixture was stored in the dark at room temperature for 16 h. […] All the compounds tested were dissolved in EtOH. […] The degree of decolorization was calculated as the percentage reduction of absorbance. […] Trolox was used as a reference antioxidant.

HepG2 cells = test: Cytotoxicity, MTT assay, HepG2; assay type: cell-based; details: Homo sapiens
Method: as §1, §2

[3] = Kinetic solubility by UV spectrometry; assay type: physicochemical; details: PBS 50 mM, aqueous buffer, kinetic from dmso stock
Method: A modified protocol was used from that described by Hoelke et al. for the determination of the kinetic solubility from DMSO compound solutions. A compound calibration curve (compound concentration vs UV absorption) was prepared for each compound with concentrations of 10, 20, 50, 100, and 200 µM. Each compound dilution was carried out by pipetting defined volumes of a 20 mM stock compound solution in DMSO into vials and adding PBS 50 mM to reach a final volume of 1 mL/well. The final amount of DMSO per well was 2%. For the lower compound concentrations, an additional volume of DMSO was added to each well to reach 2% DMSO. Then, 200 µL of each dilution was transferred to a new 96-well culture plate for the measurement of the UV-spectra. One well in each row was left without a compound as a blank, and its UV absorbance was used as an offset correction. The experiments were performed in duplicate.
In parallel, compound saturation solutions were reached and filtered from 20 mM compound stock in DMSO: 10 µL of a 20 mM stock solution was dispensed into 190 µL of PBS 10 mM. The solutions were mixed, shaken on a microplate shaker for two hours, and then 160 µL of each solution was filtered and transferred to a new well plate for UV absorption measurement.
Measurement of the UV-spectra was performed using a Varioskan microplate reader, and spectra were taken in the range of 270–600 nm. Spectral bandwidth was set to 5 nm, and the data pint interval was 10 nm. The experiments were carried out in triplicate.

[4] = HepG2, MTT, cytotoxicity, read-out: HepG2 IC50

Row | Structure (SMILES) | IC50 [2] [µM] | solubility [3] [µM] | melting point [°C] | IC50 (SH-SY5Y cells) [µM] | FRAP Assay Trolox Equivalents [1] | FRAP Assay Antioxidant Capacity (%) at 100 uM [1] [%] | FRAP Assay Antioxidant Capacity (%) at 200 uM [1] [%] | IC50 (HepG2 cells; HepG2, read-out: HepG2 IC50) [µM] | IC50 (SH-SY5Y cells; MTT, cytotoxicity) [µM] | IC50 (HepG2 cells; [4]) [µM] | ABTS Assay TEAC50 [2] | ABTS Assay TEAC100 [2]
1 | CN1C(=O)CC(c2ccccc2Cl)=Nc2c(F)c(F)c(F)c(F)c21 [Compound 8, 6,7,8,9-tetrafluoro-4-(2-chlorophenyl)-1-methyl-1H-1,5-benzodiazepin-2(3H)-one] | > 1000 | < 100 | 128.7 | 150 ± 17 | 0.01 | 0.6 | 0.2 | 207 ± 27 |  |  |  | 
2 | CN1C(=O)CC(c2ccccc2)=Nc2cc(F)ccc21 [Compound 14, 7-Fluoro-1-methyl-4-phenyl-1H-1,5-benzodiazepin-2(3H)-one] | > 1000 | > 200 | 107.7 | 220 ± 27.9 | 0.01 | 0.3 | 0.6 | 233 ± 18.7 |  |  |  | 
3 | CN1C(=O)CC(c2ccccc2F)=Nc2c(F)c(F)c(F)c(F)c21 [Compound 6, 6,7,8,9-tetrafluoro-4-(2-fluorophenyl)-1-methyl-1H-1,5-benzodiazepin-2(3H)-one] | > 1000 | < 200 | 142.6 | > 250 | 0.02 | 1.1 | 1.6 | > 250 |  |  |  | 
4 | CN1C(=O)CC(c2ccccc2)=Nc2ccc(F)cc21 [Compound 12, 8-Fluoro-1-methyl-4-phenyl-1H-1,5-benzodiazepin-2(3H)-one] | > 1000 | > 200 |  | 240 ± 24.9 | 0.02 | 0.8 | 1.4 | 230 ± 25.5 |  |  |  | 
5 | Cc1c(C)c2c(c(C)c1O)CCC(C)(C(=O)O)O2 (stereo not drawn) [Trolox, reference compound] | 25.1 ± 1.2 |  |  |  | 1 | 51.3 | 100 |  |  |  | 1 | 1
6 | CN1C(=O)CC(c2ccccc2)=Nc2ccccc21 [Compound 19, 1-Methyl-4-phenyl-1H-1,5-benzodiazepin-2(3H)-one] | > 1000 | > 200 |  | 201 ± 27 | 0.03 | 1.7 | 3.5 | > 250 |  |  |  | 
7 | CN1C(=O)CC(c2ccccc2)=Nc2c(F)c(F)c(F)c(F)c21 [Compound 4, 6,7,8,9-tetrafluoro-4-phenyl-1-methyl-1H-1,5-benzodiazepin-2(3H)-one] | > 1000 |  | 133.7 |  | 0.02 | 1.1 | 1.3 |  | > 250 | > 250 |  | 

Second part, led by results:

Row | IC50 [2] [µM] | solubility [3] [µM] | melting point [°C] | Structure (SMILES) | IC50 (SH-SY5Y cells) [µM] | FRAP Assay Trolox Equivalents [1] | FRAP Assay Antioxidant Capacity (%) at 100 uM [1] [%] | FRAP Assay Antioxidant Capacity (%) at 200 uM [1] [%] | IC50 (HepG2 cells; HepG2, read-out: HepG2 IC50) [µM] | IC50 (SH-SY5Y cells; MTT, cytotoxicity) [µM] | IC50 (HepG2 cells; [4]) [µM] | ABTS Assay TEAC50 [2] | ABTS Assay TEAC100 [2]
8 | > 1000 | > 200 |  | CN1C(=O)CC(c2ccccc2)=Nc2cc(F)cc(F)c21 [Compound 16, 7,9-Difluoro-1-methyl-4-phenyl-1H-1,5-benzodiazepin-2(3H)-one] |  | 0.00 | 0 | 0 |  | > 250 | > 250 |  | 
9 | > 500 | < 100 | 241.8 | COc1cc(C2=Nc3cc(F)c(F)cc3NC(=O)C2)cc(OC)c1OC [Compound 22, 7,8-Difluoro-4-(3,4,5-trimethoxyphenyl)-1H-1,5-benzodiazepin-2(3H)-one] |  | 0.30 | 15.7 | 13.7 |  | > 250 | > 250 |  | 
10 | 635 ± 87 | < 50 | 211.7 | O=C1CC(c2ccccc2Cl)=Nc2c(F)c(F)c(F)c(F)c2N1 [Compound 7, 6,7,8,9-tetrafluoro-4-(2-chlorophenyl)-1H-1,5-benzodiazepin-2(3H)-one] |  | 0.01 | 0.6 | 0.4 |  | 135 ± 11.2 | 201 ± 13.1 | 0.35 | 0.16
11 | > 1000 | > 200 | 132.2 | CC1=Nc2c(F)c(F)c(F)c(F)c2N(C)C(=O)C1 [Compound 2, 6,7,8,9-tetrafluoro-1,4-dimethyl-1H-1,5-benzodiazepin-2(3H)-one] |  | 0.02 | 1.00 | 0.5 |  | > 250 | > 250 |  | 
12 | 137 ± 5.3 | < 100 | 208.5 | COc1cc(C2=Nc3cc(C)c(C)cc3NC(=O)C2)cc(OC)c1OC [Compound 21, 7,8-Dimethyl-4-(3,4,5-trimethoxyphenyl)-1H-1,5-benzodiazepin-2(3H)-one] |  | 0.89 | 47.2 | 60.9 |  | > 250 | > 250 | 0.36 | 0.21
13 | > 500 | < 20 | 246 | COc1cc(C2=Nc3cc(Cl)c(Cl)cc3NC(=O)C2)cc(OC)c1OC [Compound 23, 7,8-Dichloro-4-(3,4,5-trimethoxyphenyl)-1H-1,5-benzodiazepin-2(3H)-one] |  | 0.03 | 2.7 | 4.6 |  | > 250 |  |  | 
14 | > 1000 | > 200 | 115.8 | CN1C(=O)CC(c2ccccc2)=Nc2cc(F)c(F)cc21 [Compound 10, 7,8-Difluoro-1-methyl-4-phenyl-1H-1,5-benzodiazepin-2(3H)-one] |  | 0.01 | 0.3 | 0.6 |  | 193 ± 15.9 | > 250 |  | 
15 | > 1000 | < 50 | 221.5 | O=C1CC(c2ccccc2)=Nc2c(F)cc(F)cc2N1 [Compound 17, 6,8-Difluoro-4-phenyl-1H-1,5-benzodiazepin-2(3H)-one] |  | 0.04 | 1.8 | 2.5 |  | > 250 | > 250 |  | 
16 | 496 ± 82 | < 10 |  | O=C1CC(c2ccccc2)=Nc2cc(F)cc(F)c2N1 [Compound 15, 7,9-Difluoro-4-phenyl-1H-1,5-benzodiazepin-2(3H)-one] |  | 0.07 | 3.8 | 6.2 |  | > 250 | > 250 | 0.34 | 0.15

From paper PMC8533176, “1,5-Benzodiazepin-2(3H)-ones: In Vitro Evaluation as Antiparkinsonian Agents” (Antioxidants, 2021)
